From patent US20250092056A1, “URACIL DERIVATIVES HAVING VIRUS REPLICATION INHIBITORY ACTIVITY AND PHARMACEUTICAL COMPOSITION COMPRISING THE SAME” (Shionogi & Co., Ltd., priority 2022, published 2025)

These compounds were tested on SARS-CoV-2 (assay: Cytopathic effect (CPE) suppression effect confirmation test using HEK293T/ACE2-TMPRSS2 cells). Conditions: Severe acute respiratory syndrome coronavirus 2, HEK-293T, 72 h, read-out: EC50 (50% SARS-CoV-2 infected cell death inhibitory concentration), HEK293T/ACE2-TMPRSS2 cells, CPE suppression, CellTiter-Glo 2.0 after 3 days culture.
Format: cell-based
In the case of `N#CCn1c(N2CC(C(F)F)C2)c(-c2ccc(F)c(Cl)c2)c(=O)n(-c2cncc(Cl)c2)c1=O` [Compound I-250], the EC50 is reported as 3.31 nM. Work on `Cc1cncc(N2C(=O)N(CC#N)CC3(CCOc4ccc(Cl)cc43)C2=O)c1` (racemic) [Compound I-088] yielded an EC50 of 97.2 nM. For `Cc1cncc(-n2c(=O)c(Cc3cc(F)c(F)c(F)c3)c(-c3ccc(C)c(C)c3)n(CC#N)c2=O)c1` [Compound I-060], the EC50 was 19 nM.

Same assay, conditions: Severe acute respiratory syndrome coronavirus 2, HEK-293T, 72 h, read-out: EC50 (50% SARS-CoV-2 infected cell death inhibitory concentration), class, HEK293T/ACE2-TMPRSS2 cells, CPE suppression, CellTiter-Glo 2.0 after 3 days culture
`Cc1cnnc(-n2c(=O)c(-c3ccc(F)c(Cl)c3)c(N3CC4(CCOC4)C3)n(CC#N)c2=O)c1` [Compound I-160] was tested, and the EC50 was < 100 nM. `CC1(C)[C@@H]2CN(c3c(-c4cccc(Cl)c4)c(=O)n(-c4cncc(Cl)c4)c(=O)n3CC#N)C[C@@H]21` [Compound I-178] was tested, and the EC50 was < 100 nM. `Cc1cncc(-n2c(=O)c(-c3ccc(F)c(Cl)c3)c(-c3ccc(C(=O)OC(C)(C)C)cc3)n(CC#N)c2=O)c1` [Compound I-027] was tested, and the EC50 was 100 to 1000 nM. In the case of `Cc1cncc(-n2c(=O)c(Cc3cc(F)c(F)c(F)c3)c(N3CC4CC(F)(F)C4C3)n(CC#N)c2=O)c1` (racemic) [Compound I-103], the EC50 is reported as < 100 nM. In the case of `N#CCn1c(N2CC3(CCOC3)C2)c(-c2ccc(F)c(Cl)c2)c(=O)n(-c2cncc(C(F)(F)F)n2)c1=O` [Compound I-190], the EC50 is reported as < 100 nM. `N#CCn1c(N2CC3(CCOC3)C2)c(Cc2cc(F)c(F)c(F)c2)c(=O)n(-c2cnc3cnccn23)c1=O` [Compound I-127] was tested, and the EC50 was 1000 to 5000 nM. With `N#CCn1c(N2CCC(F)(F)CC2)c(-c2cccc(Cl)c2)c(=O)n(-c2cncc(Cl)c2)c1=O` [Compound I-174] the EC50 was < 100 nM. With `Cc1cncc(-n2c(=O)c(-c3ccc(F)c(Cl)c3)c(N3Cc4cn[nH]c4C3)n(CC#N)c2=O)c1` [Compound I-074] the EC50 was < 100 nM. In the case of `Cc1[nH]ncc1-n1c(=O)c(Cc2cc(F)c(F)c(F)c2)c(N2Cc3ccccc3C2)n(CC#N)c1=O` [Compound I-164], the EC50 is reported as < 100 nM. With `Cc1cncc(-n2c(=O)c(Cc3cc(F)c(F)c(F)c3)c(N3CC4(CCOC4)C3)n(CC#N)c2=O)c1` [Compound I-101] the EC50 was < 100 nM. With `N#CCn1c(N2C[C@@H]3[C@@H](O)[C@@H]3C2)c(-c2ccc(F)c(Cl)c2)c(=O)n(-c2cncc(Cl)c2)c1=O` [Compound I-082] the EC50 was < 100 nM. `Cc1cncc(-n2c(=O)c(Cc3cc(F)c(F)c(F)c3)c(N3Cc4cn[nH]c4C3)n(CC#N)c2=O)c1` [Compound I-204] was tested, and the EC50 was < 100 nM. With `Cc1cc(-n2c(=O)c(-c3ccc(F)c(Cl)c3)c(N3CC4(C3)CC(F)(F)C4)n(CC#N)c2=O)cc(=O)[nH]1` [Compound I-163] the EC50 was 100 to 1000 nM. In the case of `N#CCn1c(N2CC3(CCOC3)C2)c(-c2cccc(C(F)F)c2)c(=O)n(-c2cncc(Cl)c2)c1=O` [Compound I-177], the EC50 is reported as < 100 nM. Work on `N#CCn1c(N2CCC3(CCC(=O)N3)C2)c(-c2ccc(F)c(Cl)c2)c(=O)n(-c2cncc(Cl)c2)c1=O` (racemic) [Compound I-061] yielded an EC50 of 100 to 1000 nM. `N#CCn1c(N2CC3(CCOC3)C2)c(-c2ccc(F)c(Cl)c2)c(=O)n(-c2cncc(Cl)n2)c1=O` [Compound I-191] was tested, and the EC50 was < 100 nM. For `Cc1cncc(-n2c(=O)c(Cc3cc(F)c(F)c(F)c3)c(N3CCC4(CC3)CNC(=O)O4)n(CC#N)c2=O)c1` [Compound I-114], the EC50 was 100 to 1000 nM.

Same assay, conditions: Severe acute respiratory syndrome coronavirus 2, HEK-293T, 72 h; HEK293T/ACE2-TMPRSS2 cells, CPE suppression, CellTiter-Glo 2.0 after 3 days culture; read-out: EC50 (50% SARS-CoV-2 infected cell death inhibitory concentration), class
`Cc1cncc(-n2c(=O)c(Cc3cc(F)c(F)c(F)c3)c(N3CCC(C#N)C3)n(CC#N)c2=O)c1` (racemic) [Compound I-092] was tested, and the EC50 was < 100 nM. `CC1(O)CC2(CN(c3c(-c4ccc(F)c(Cl)c4)c(=O)n(-c4cnc5cc(F)ccn45)c(=O)n3CC#N)C2)C1` [Compound I-137] showed an EC50 of 100 to 1000 nM. Work on `Cc1cc(-n2c(=O)c(-c3ccc(F)c(Cl)c3)c(N3CC4(CCOC4)C3)n(CC#N)c2=O)cnn1` [Compound I-188] yielded an EC50 of 100 to 1000 nM.

Same assay, conditions: Severe acute respiratory syndrome coronavirus 2, HEK-293T; 50% SARS-CoV-2 infected cell death inhibitory concentration; HEK293T/ACE2-TMPRSS2 cells; read-out: EC50
For `N#CCn1c(N2CC(C(F)(F)F)C2)c(-c2ccc(F)c(C#N)c2)c(=O)n(-c2cncc(Cl)c2)c1=O` [Compound I-374], the EC50 was < 100 nM. In the case of `N#CCn1c(N2CCC2)c(-c2ccc(F)c(Cl)c2)c(=O)n(-c2cncc(Cl)c2)c1=O` [Compound I-251], the EC50 is reported as < 100 nM.

Same assay, conditions: read-out: EC50 (50% SARS-CoV-2 infected cell death inhibitory concentration), class; HEK293T/ACE2-TMPRSS2 cells, CPE suppression, CellTiter-Glo 2.0 after 3 days culture
`Cc1[nH]ncc1-n1c(=O)c(Cc2cc(F)c(F)c(F)c2)c(N2Cc3ccccc3C2)n(CC#N)c1=O` [Compound I-164] showed an EC50 of 100 to 1000 nM.

The compounds below were run against Recombinant SARS-CoV-2 3CL Protease (Severe acute respiratory syndrome coronavirus 2 (2019-nCoV) (SARS-CoV-2), UniProt P0DTD1) (assay: biochemical). Conditions: 50% SARS-CoV-2 3CL protease inhibitory concentration; read-out: IC50.
Format: biochemical
For `Cc1cnnc(-n2c(=O)c(-c3ccc(F)c(Cl)c3)c(N3CC4(CCOC4)C3)n(CC#N)c2=O)c1` [Compound I-160], the IC50 was < 10 nM. With `N#CCn1c(N2CC(C(F)(F)F)C2)c(-c2ccc(F)c(C#N)c2)c(=O)n(-c2cncc(Cl)c2)c1=O` [Compound I-374] the IC50 was < 10 nM. In the case of `N#CCn1c(N2CCC2)c(-c2ccc(F)c(Cl)c2)c(=O)n(-c2cncc(Cl)c2)c1=O` [Compound I-251], the IC50 is reported as < 10 nM. `Cc1cncc(-n2c(=O)c(Cc3cc(F)c(F)c(F)c3)c(N3CCC(C#N)C3)n(CC#N)c2=O)c1` (racemic) [Compound I-092] showed an IC50 of 10 to 100 nM. For `CC1(C)[C@@H]2CN(c3c(-c4cccc(Cl)c4)c(=O)n(-c4cncc(Cl)c4)c(=O)n3CC#N)C[C@@H]21` [Compound I-178], the IC50 was < 10 nM. For `N#CCn1c(N2CC(C(F)F)C2)c(-c2ccc(F)c(Cl)c2)c(=O)n(-c2cncc(Cl)c2)c1=O` [Compound I-250], the IC50 was 0.54 nM. `Cc1cncc(N2C(=O)N(CC#N)CC3(CCOc4ccc(Cl)cc43)C2=O)c1` (racemic) [Compound I-088] showed an IC50 of 71 nM. Compound `CC1(O)CC2(CN(c3c(-c4ccc(F)c(Cl)c4)c(=O)n(-c4cnc5cc(F)ccn45)c(=O)n3CC#N)C2)C1` [Compound I-137] has an IC50 of 10 to 100 nM. For `Cc1cncc(-n2c(=O)c(-c3ccc(F)c(Cl)c3)c(-c3ccc(C(=O)OC(C)(C)C)cc3)n(CC#N)c2=O)c1` [Compound I-027], the IC50 was > 100 nM. `Cc1cncc(-n2c(=O)c(Cc3cc(F)c(F)c(F)c3)c(N3CC4CC(F)(F)C4C3)n(CC#N)c2=O)c1` (racemic) [Compound I-103] was tested, and the IC50 was < 10 nM. `N#CCn1c(N2CC3(CCOC3)C2)c(-c2ccc(F)c(Cl)c2)c(=O)n(-c2cncc(C(F)(F)F)n2)c1=O` [Compound I-190] was tested, and the IC50 was < 10 nM. With `N#CCn1c(N2CC3(CCOC3)C2)c(Cc2cc(F)c(F)c(F)c2)c(=O)n(-c2cnc3cnccn23)c1=O` [Compound I-127] the IC50 was > 100 nM. In the case of `N#CCn1c(N2CCC(F)(F)CC2)c(-c2cccc(Cl)c2)c(=O)n(-c2cncc(Cl)c2)c1=O` [Compound I-174], the IC50 is reported as < 10 nM. For `Cc1cncc(-n2c(=O)c(-c3ccc(F)c(Cl)c3)c(N3Cc4cn[nH]c4C3)n(CC#N)c2=O)c1` [Compound I-074], the IC50 was < 10 nM. In the case of `Cc1[nH]ncc1-n1c(=O)c(Cc2cc(F)c(F)c(F)c2)c(N2Cc3ccccc3C2)n(CC#N)c1=O` [Compound I-164], the IC50 is reported as > 100 nM. With `Cc1cncc(-n2c(=O)c(Cc3cc(F)c(F)c(F)c3)c(N3CC4(CCOC4)C3)n(CC#N)c2=O)c1` [Compound I-101] the IC50 was < 10 nM. `Cc1cncc(-n2c(=O)c(Cc3cc(F)c(F)c(F)c3)c(-c3ccc(C)c(C)c3)n(CC#N)c2=O)c1` [Compound I-060] gave an IC50 of 4.7 nM. `N#CCn1c(N2C[C@@H]3[C@@H](O)[C@@H]3C2)c(-c2ccc(F)c(Cl)c2)c(=O)n(-c2cncc(Cl)c2)c1=O` [Compound I-082] was tested, and the IC50 was < 10 nM. With `Cc1cncc(-n2c(=O)c(Cc3cc(F)c(F)c(F)c3)c(N3Cc4cn[nH]c4C3)n(CC#N)c2=O)c1` [Compound I-204] the IC50 was < 10 nM. In the case of `Cc1cc(-n2c(=O)c(-c3ccc(F)c(Cl)c3)c(N3CC4(C3)CC(F)(F)C4)n(CC#N)c2=O)cc(=O)[nH]1` [Compound I-163], the IC50 is reported as < 10 nM. For `N#CCn1c(N2CC3(CCOC3)C2)c(-c2cccc(C(F)F)c2)c(=O)n(-c2cncc(Cl)c2)c1=O` [Compound I-177], the IC50 was < 10 nM. `Cc1cc(-n2c(=O)c(-c3ccc(F)c(Cl)c3)c(N3CC4(CCOC4)C3)n(CC#N)c2=O)cnn1` [Compound I-188] was tested, and the IC50 was 10 to 100 nM. With `N#CCn1c(N2CCC3(CCC(=O)N3)C2)c(-c2ccc(F)c(Cl)c2)c(=O)n(-c2cncc(Cl)c2)c1=O` (racemic) [Compound I-061] the IC50 was < 10 nM. With `N#CCn1c(N2CC3(CCOC3)C2)c(-c2ccc(F)c(Cl)c2)c(=O)n(-c2cncc(Cl)n2)c1=O` [Compound I-191] the IC50 was < 10 nM. `Cc1cncc(-n2c(=O)c(Cc3cc(F)c(F)c(F)c3)c(N3CCC4(CC3)CNC(=O)O4)n(CC#N)c2=O)c1` [Compound I-114] was tested, and the IC50 was < 10 nM.
